Experimental data: article PMC9268560, “Design, Synthesis, In Silico and In Vitro Studies of New Immunomodulatory Anticancer Nicotinamide Derivatives Targeting VEGFR-2” (Molecules, 2022)
Read-outs that look alike come from different tables or passages of the source.

Assays:
[1] = In vitro viability test (MTT) on non-cancerous Vero cell lines; assay type: cell-based; conditions: African green monkey, Vero cells (non-cancerous), non-cancerous model, read-out: Cytotoxicity Against Vero Cell Lines (IC50)
Source text: (§1) An in-vitro viability test was used to investigate the safety patterns of the tested compounds at different concentrations. The Vero cell lines were used as a non-cancerous model to investigate the safety of the targeted compounds. […] Such values are very high in comparison to the corresponding values on the cancer cell lines, which reflect the high in vitro safety profiles of the tested members towards the examined non-cancerous cell lines (Table 2).

HepG2 = test: In vitro anti-proliferative activity (MTT assay), HepG2; conditions: for Selectivity index (SI) (HepG2): cytotoxicity against Vero cells/cytotoxicity against HepG2
HCT-116 = test: In vitro anti-proliferative activity (MTT assay), HCT-116; conditions: for Selectivity index (SI) (HCT-116): Cytotoxicity against Vero cells/cytotoxicity against HCT-116
human VEGFR-2 = human VEGFR-2 (Homo sapiens, UniProt P35968); test: In vitro VEGFR-2 enzyme inhibition assay (Human VEGFR-2 ELISA kit)
HCT-116 cells [2] = test: Flow cytometry analysis for cell cycle (PI staining); assay type: cell-based, human; conditions: HCT-116, 5.4 µM, 24 h
HCT-116 cells [3] = test: Flow cytometry analysis for apoptosis (Annexin V and PI double staining); assay type: cell-based, human; conditions: HCT-116, 5.4 µM, 24 h
TNF-α = TNF-α level in treated HCT-116 cells (qRT-PCR); assay type: cell-based; conditions: Homo sapiens; HCT-116, 5.4 µM, 24 h; control 82.47
IL-6 = IL-6 level in treated HCT-116 cells (qRT-PCR); assay type: cell-based, human; conditions: HCT-116, 5.4 µM, 24 h
Bax = Bax expression level in treated HCT-116 cells (qRT-PCR); conditions: HCT-116, 5.4 µM, 24 h
Bcl-2 = Bcl-2 expression level in treated HCT-116 cells (qRT-PCR); conditions: HCT-116, 5.4 µM, 24 h
caspase-8 = test: Caspase-8 expression level in treated HCT-116 cells (qRT-PCR); conditions: HCT-116, 5.4 µM, 24 h
Vero cell lines = test: In vitro viability test (MTT) on non-cancerous Vero cell lines; assay type: cell-based; conditions: non-cancerous model, read-out: Cytotoxicity Against Vero Cell Lines (IC50)
Source text: as §1

[4] = Homo sapiens, HepG2, read-out: Cytotoxicity IC50 HepG2
[5] = Homo sapiens, HCT-116, read-out: Cytotoxicity IC50 HCT-116

Chain of human VEGFR-2 (P35968 20-1356): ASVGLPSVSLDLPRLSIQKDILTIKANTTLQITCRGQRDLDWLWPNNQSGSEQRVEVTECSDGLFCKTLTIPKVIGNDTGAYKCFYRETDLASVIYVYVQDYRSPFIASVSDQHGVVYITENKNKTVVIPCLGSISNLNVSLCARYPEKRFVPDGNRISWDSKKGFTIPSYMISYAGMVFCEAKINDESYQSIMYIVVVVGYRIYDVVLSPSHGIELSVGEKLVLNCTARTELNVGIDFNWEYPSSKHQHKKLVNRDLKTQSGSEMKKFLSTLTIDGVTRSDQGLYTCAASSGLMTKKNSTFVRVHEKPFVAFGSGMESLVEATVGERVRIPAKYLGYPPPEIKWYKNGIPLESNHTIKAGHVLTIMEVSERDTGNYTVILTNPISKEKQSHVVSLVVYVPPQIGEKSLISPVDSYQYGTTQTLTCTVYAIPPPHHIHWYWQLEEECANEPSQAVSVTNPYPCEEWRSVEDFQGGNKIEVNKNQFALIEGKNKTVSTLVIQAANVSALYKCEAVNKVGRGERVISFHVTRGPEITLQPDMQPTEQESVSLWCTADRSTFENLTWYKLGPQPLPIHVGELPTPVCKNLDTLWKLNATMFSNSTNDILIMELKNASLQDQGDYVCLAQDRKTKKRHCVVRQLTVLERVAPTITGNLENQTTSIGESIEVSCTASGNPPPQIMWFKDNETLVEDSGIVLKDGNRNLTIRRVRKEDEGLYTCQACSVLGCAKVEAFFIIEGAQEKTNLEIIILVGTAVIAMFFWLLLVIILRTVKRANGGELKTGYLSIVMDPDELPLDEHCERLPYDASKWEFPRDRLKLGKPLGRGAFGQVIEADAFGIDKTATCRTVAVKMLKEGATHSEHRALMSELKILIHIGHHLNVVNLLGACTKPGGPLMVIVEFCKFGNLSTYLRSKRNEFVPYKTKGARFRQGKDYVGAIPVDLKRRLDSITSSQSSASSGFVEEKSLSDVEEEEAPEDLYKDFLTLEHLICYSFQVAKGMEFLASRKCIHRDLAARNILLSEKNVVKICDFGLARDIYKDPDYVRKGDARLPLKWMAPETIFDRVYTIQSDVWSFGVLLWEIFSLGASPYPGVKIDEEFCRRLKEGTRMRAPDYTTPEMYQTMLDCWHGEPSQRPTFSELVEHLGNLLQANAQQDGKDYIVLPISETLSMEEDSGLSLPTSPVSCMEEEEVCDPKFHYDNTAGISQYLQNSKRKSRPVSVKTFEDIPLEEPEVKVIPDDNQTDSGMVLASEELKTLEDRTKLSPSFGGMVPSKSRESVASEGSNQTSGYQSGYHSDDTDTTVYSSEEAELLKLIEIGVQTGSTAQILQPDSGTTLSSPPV

Compound	IC50 [1] [µM]	IC50 (HepG2; [4]) [µM]	Selectivity index (SI) (HepG2) (HepG2)	Selectivity index (SI) (HCT-116) (HCT-116)	IC50 (HCT-116; [5]) [µM]	IC50 (human VEGFR-2) [µM]	also measured
O=C(N/N=C/c1ccc(Cl)cc1Cl)c1ccc(NC(=O)c2cccnc2)cc1 [Compound 6, (E)-N-(4-(2-(2,4-Dichlorobenzylidene)hydrazine-1-carbonyl)phenyl)-nicotinamide]	84.7	16.5 ± 0.057	5.13	4.76	17.8 ± 0.059	0.172 ± 0.0102	–
COc1ccc(/C=N/NC(=O)c2ccc(NC(=O)c3cccnc3)cc2)cc1OC [Compound 7, (E)-N-(4-(2-(3,4-Dimethoxybenzylidene)hydrazine-1-carbonyl)phenyl)-nicotinamide]	128	18.8 ± 0.061	6.80	6.66	19.2 ± 0.062	0.113 ± 0.00723	–
CN(C)c1ccc(/C=C/C=N/NC(=O)c2ccc(NC(=O)c3cccnc3)cc2)cc1 [Compound 8, N-(4-(2-((1E,2E)-3-(4-(Dimethylamino)phenyl)allylidene)hydrazine-1-carbonyl)phenyl)nicotinamide]	85.2	7.1 ± 0.03	12.01	15.79	5.4 ± 0.02	0.077 ± 0.00425	Augmentation of G0–G1 phase vs control (HCT-116 cells [2]): 1.42 fold; Decline of cell population at G2/M phase vs control (HCT-116 cells [2]): 2.11 fold; Cell Cycle Distribution %G2-M (HCT-116 cells [2]; control 27.29): 12.91%; Cell Cycle Distribution % S (HCT-116 cells [2]; control 33.75): 31.47%; Cell Cycle Distribution %G0-G1 (HCT-116 cells [2]; control 38.96): 55.62%; Cell Cycle Distribution %Pre-G1 (HCT-116 cells [2]; control printed 19.82): 3.05%; Increase in total apoptosis vs control (HCT-116 cells [3]): 6.5 fold; Necrosis (HCT-116 cells [3]; control 0.62): 1.85%; Apoptosis Early (HCT-116 cells [3]; control 0.7): 3.74%; Apoptosis Late (HCT-116 cells [3]; control 1.73): 14.23%; Apoptosis Total (HCT-116 cells [3]; control 3.05): 19.82%; inhibition at 5.4 µM (TNF-α): 92.4%; Effect on the level of IL-6 (in words) (IL-6): non-significant reduction; inhibition at 5.4 µM (IL-6; Homo sapiens, control 93.15): 94.1%; Increase in Bax level vs control cells (Bax): 9.2 fold; Bax expression level (Bax; control 42.19): 387.26 pg/mL; Decrease in Bcl-2 level vs control cells (Bcl-2): 3 fold; Bcl-2 expression level (Bcl-2; control 5.603): 1.844 pg/mL; Increase in caspase-8 level vs control cells (caspase-8): 9.4 fold; Caspase-8 expression level (caspase-8; control 50.317): 472.3 pg/mL
CC(=NNC(N)=S)c1ccc(NC(=O)c2cccnc2)cc1 [Compound 11, N-(4-(1-(2-Carbamothioylhydrazono)ethyl)phenyl)nicotinamide]	105	20.3 ± 0.064	5.19	4.20	25.07 ± 0.07	0.0834 ± 0.00553	–
CNC(=O)c1cc(Oc2ccc(NC(=O)Nc3ccc(Cl)c(C(F)(F)F)c3)cc2)ccn1 [Sorafenib, sorafenib, reference compound]	–	7.4 ± 0.235	–	–	9.3 ± 0.201	–	–
(E)-N-(4-(1-(2-(2,6-Dinitrophenyl)hydrazono)ethyl)phenyl)nicotinamide [Compound 12]	–	–	5.45	5.24	–	–	IC50 (Vero cell lines): 95.4 µM; IC50 (HepG2; read-out: Cytotoxicity IC50 HepG2, MTT, mean ± S.D. of three separate experiments): 17.5 ± 0.058 µM; IC50 (HCT-116; read-out: Cytotoxicity IC50 HCT-116, MTT, mean ± S.D. of three separate experiments): 18.2 ± 0.06 µM; IC50 (human VEGFR-2; read-out: VEGFR-2 IC50, mean ± S.D. of three separate experiments): 0.115 ± 0.00733 µM
